Source: US20020090380A1, “Novel formulation comprising thymol useful in the treatment of drug resistant bacterial infections” (priority 2000, published 2002)
Where two headings read alike, the source gives them in different places.

Key:
[1] = test system: E. coli CA 8000 (WT); assay type: cell-based, Escherichia coli
[2] = test system: lomefloxacin resistant cells of E. coli; assay type: cell-based, Escherichia coli
[3] = test system: Ethidium bromide resistant strain of Mycobacterium smegmetis; assay type: cell-based
[4] = test system: Nal^R mutants of E. coli; assay type: cell-based, Escherichia coli
[5] = test system: Lom^R mutants of Mycobacterium smegmatis; assay type: cell-based; settings: Lom^R mutants
[6] = test system: E. coli cells; assay: microbe, parasite or virus in culture; assay type: cell-based; settings: Escherichia coli
[7] = CA 8000 (WT), 20 μg/ml, Table 4

CCn1cc(C(=O)O)c(=O)c2cc(F)c(N3CCNCC3)cc21 [Aorfloxacin]
−: Growth in poison agar medium [1, 7]
+: Growth in poison agar medium ([2]; CAL 101, 20 μg/ml) | Growth in poison agar medium ([2]; CAL 102, 20 μg/ml) | Growth in poison agar medium ([2]; CAL 103, 20 μg/ml) | Growth in poison agar medium ([2]; CAL 104, 20 μg/ml) | Growth in poison agar medium ([2]; CAL 105, 20 μg/ml) | Growth in poison agar medium ([2]; CAL 106, 20 μg/ml) | Growth in poison agar medium ([2]; CAL 107, 20 μg/ml) | Growth in poison agar medium ([2]; CAL 108, 20 μg/ml)

O=C(N[C@H](CO)[C@H](O)c1ccc([N+](=O)[O-])cc1)C(Cl)Cl [Chloromphenicol]
20 µg/mL: concentration against which the strain is resistant (mdr) [3]

O=C(O)c1cn(C2CC2)c2cc(N3CCNCC3)c(F)cc2c1=O [Ciprofloxacin, ciprofloxacin]
−: Growth in poison agar medium ([4]; CAN 101, 5 μg/ml) | Growth in poison agar medium ([4]; CAN 102, 5 μg/ml) | Growth in poison agar medium ([4]; CAN 103, 5 μg/ml) | Growth in poison agar medium ([4]; CAN 104, 5 μg/ml) | Growth in poison agar medium ([4]; CAN 105, 5 μg/ml) | Growth in poison agar medium ([4]; CAN 106, 5 μg/ml) | Growth in poison agar medium ([4]; CAN 107, 5 μg/ml) | Growth in poison agar medium ([4]; CAN 108, 5 μg/ml) | Growth in poison agar medium ([4]; CAN 109, 5 μg/ml) | Growth in poison agar medium ([4]; CAN 110, 5 μg/ml) | Growth in poison agar medium ([4]; CAN 111, 5 μg/ml) | Growth in poison agar medium ([4]; CAN 112, 5 μg/ml) | Growth in poison agar medium ([4]; CAN 113, 5 μg/ml) | Growth in poison agar medium ([4]; CAN 114, 5 μg/ml) | Growth in poison agar medium ([4]; CAN 115, 5 μg/ml) | Growth in poison agar medium ([4]; CAN 116, 5 μg/ml) | Growth in poison agar medium ([4]; CAN 117, 5 μg/ml) | Growth in poison agar medium ([4]; CAN 118, 5 μg/ml) | Growth in poison agar medium ([4]; CAN 119, 5 μg/ml) | Growth in poison agar medium ([4]; CAN 120, 5 μg/ml) | Growth in poison agar medium ([4]; CAN 121, 5 μg/ml) | Growth in poison agar medium ([4]; CAN 122, 5 μg/ml) | Growth in poison agar medium ([4]; CAN 123, 5 μg/ml) | Growth in poison agar medium ([4]; CAN 124, 5 μg/ml) | Growth in poison agar medium ([4]; CAN 125, 5 μg/ml) | Growth in poison agar medium ([4]; CAN 126, 5 μg/ml) | Growth in poison agar medium [1]
resistant: resistance of the mutants [5]
+: Growth in poison agar medium ([2]; CAL 101, 2 μg/ml) | Growth in poison agar medium ([2]; CAL 102, 2 μg/ml) | Growth in poison agar medium ([2]; CAL 103, 2 μg/ml) | Growth in poison agar medium ([2]; CAL 104, 2 μg/ml) | Growth in poison agar medium ([2]; CAL 105, 2 μg/ml) | Growth in poison agar medium ([2]; CAL 106, 2 μg/ml) | Growth in poison agar medium ([2]; CAL 107, 2 μg/ml) | Growth in poison agar medium ([2]; CAL 108, 2 μg/ml)

CCn1cc(C(=O)O)c(=O)c2ccc(C)nc21 [Nalidixic Acid, nalidixic acid]
9 mm: zone of inhibition at 1 µg/disc ([6]; nalidixic acid 1.00 μg/disc)
+: Growth in poison agar medium ([4]; CAN 101, 50 μg/ml) | Growth in poison agar medium ([4]; CAN 102, 50 μg/ml) | Growth in poison agar medium ([4]; CAN 103, 50 μg/ml) | Growth in poison agar medium ([4]; CAN 104, 50 μg/ml) | Growth in poison agar medium ([4]; CAN 105, 50 μg/ml) | Growth in poison agar medium ([4]; CAN 106, 50 μg/ml) | Growth in poison agar medium ([4]; CAN 107, 50 μg/ml) | Growth in poison agar medium ([4]; CAN 108, 50 μg/ml) | Growth in poison agar medium ([4]; CAN 109, 50 μg/ml) | Growth in poison agar medium ([4]; CAN 110, 50 μg/ml) | Growth in poison agar medium ([4]; CAN 111, 50 μg/ml) | Growth in poison agar medium ([4]; CAN 112, 50 μg/ml) | Growth in poison agar medium ([4]; CAN 113, 50 μg/ml) | Growth in poison agar medium ([4]; CAN 114, 50 μg/ml) | Growth in poison agar medium ([4]; CAN 115, 50 μg/ml) | Growth in poison agar medium ([4]; CAN 116, 50 μg/ml) | Growth in poison agar medium ([4]; CAN 117, 50 μg/ml) | Growth in poison agar medium ([4]; CAN 118, 50 μg/ml) | Growth in poison agar medium ([4]; CAN 119, 50 μg/ml) | Growth in poison agar medium ([4]; CAN 120, 50 μg/ml) | Growth in poison agar medium ([4]; CAN 121, 50 μg/ml) | Growth in poison agar medium ([4]; CAN 122, 50 μg/ml) | Growth in poison agar medium ([4]; CAN 123, 50 μg/ml) | Growth in poison agar medium ([4]; CAN 124, 50 μg/ml) | Growth in poison agar medium ([4]; CAN 125, 50 μg/ml) | Growth in poison agar medium ([4]; CAN 126, 50 μg/ml) | Growth in poison agar medium ([2]; CAL 101, 50 μg/ml) | Growth in poison agar medium ([2]; CAL 102, 50 μg/ml) | Growth in poison agar medium ([2]; CAL 103, 50 μg/ml) | Growth in poison agar medium ([2]; CAL 104, 50 μg/ml) | Growth in poison agar medium ([2]; CAL 105, 50 μg/ml) | Growth in poison agar medium ([2]; CAL 106, 50 μg/ml) | Growth in poison agar medium ([2]; CAL 107, 50 μg/ml) | Growth in poison agar medium ([2]; CAL 108, 50 μg/ml)
6 mm: zone of inhibition at 0.5 µg/disc ([6]; nalidixic acid 0.50 μg/disc)
3 mm: zone of inhibition at 0.25 µg/disc ([6]; nalidixic acid 0.25 μg/disc)
12 mm: zone of inhibition at 2 µg/disc ([6]; nalidixic acid 2.00 μg/disc)
11 mm: zone of inhibition at 1.5 µg/disc ([6]; nalidixic acid 1.50 μg/disc)
−: Growth in poison agar medium ([1]; CA 8000 (WT), 50 μg/ml, Table 2) | Growth in poison agar medium ([1]; CA 8000 (WT), 50 μg/ml, Table 4)

CCn1cc(C(=O)O)c(=O)c2cc3c(cc21)OCO3 [Oxolinic Acid, oxolinic acid]
+: Growth in poison agar medium ([4]; CAN 106, 5 μg/ml) | Growth in poison agar medium ([4]; CAN 107, 5 μg/ml) | Growth in poison agar medium ([4]; CAN 108, 5 μg/ml) | Growth in poison agar medium ([4]; CAN 109, 5 μg/ml) | Growth in poison agar medium ([4]; CAN 110, 5 μg/ml) | Growth in poison agar medium ([4]; CAN 111, 5 μg/ml) | Growth in poison agar medium ([4]; CAN 113, 5 μg/ml) | Growth in poison agar medium ([4]; CAN 114, 5 μg/ml) | Growth in poison agar medium ([4]; CAN 115, 5 μg/ml) | Growth in poison agar medium ([4]; CAN 116, 5 μg/ml) | Growth in poison agar medium ([4]; CAN 117, 5 μg/ml) | Growth in poison agar medium ([4]; CAN 118, 5 μg/ml) | Growth in poison agar medium ([4]; CAN 121, 5 μg/ml) | Growth in poison agar medium ([4]; CAN 122, 5 μg/ml) | Growth in poison agar medium ([4]; CAN 123, 5 μg/ml) | Growth in poison agar medium ([4]; CAN 124, 5 μg/ml) | Growth in poison agar medium ([4]; CAN 125, 5 μg/ml) | Growth in poison agar medium ([4]; CAN 126, 5 μg/ml) | Growth in poison agar medium ([2]; CAL 101, 5 μg/ml) | Growth in poison agar medium ([2]; CAL 102, 5 μg/ml) | Growth in poison agar medium ([2]; CAL 103, 5 μg/ml) | Growth in poison agar medium ([2]; CAL 104, 5 μg/ml) | Growth in poison agar medium ([2]; CAL 105, 5 μg/ml) | Growth in poison agar medium ([2]; CAL 106, 5 μg/ml) | Growth in poison agar medium ([2]; CAL 107, 5 μg/ml) | Growth in poison agar medium ([2]; CAL 108, 5 μg/ml)
−: Growth in poison agar medium ([4]; CAN 101, 5 μg/ml) | Growth in poison agar medium ([4]; CAN 102, 5 μg/ml) | Growth in poison agar medium ([4]; CAN 103, 5 μg/ml) | Growth in poison agar medium ([4]; CAN 104, 5 μg/ml) | Growth in poison agar medium ([4]; CAN 105, 5 μg/ml) | Growth in poison agar medium ([4]; CAN 112, 5 μg/ml) | Growth in poison agar medium ([4]; CAN 119, 5 μg/ml) | Growth in poison agar medium ([4]; CAN 120, 5 μg/ml) | Growth in poison agar medium ([1]; CA 8000 (WT), 5 μg/ml, Table 2) | Growth in poison agar medium ([1]; CA 8000 (WT), 5 μg/ml, Table 4)

CO[C@H]1/C=C/O[C@@]2(C)Oc3c(C)c(O)c4c(O)c(c(/C=N/N5CCN(C)CC5)c(O)c4c3C2=O)NC(=O)/C(C)=C\C=C\[C@H](C)[C@H](O)[C@@H](C)[C@@H](O)[C@@H](C)[C@H](OC(C)=O)[C@@H]1C [Rifampicin]
40 µg/mL: concentration against which the strain is resistant (mdr) [3]

C[C@@H]1CN(c2c(F)c(N)c3c(=O)c(C(=O)O)cn(C4CC4)c3c2F)C[C@H](C)N1 [Sparfloxacin]
−: Growth in poison agar medium ([1]; CA 8000 (WT), 5 μg/ml, Table 2) | Growth in poison agar medium [1, 7]
+: Growth in poison agar medium ([4]; CAN 101, 5 μg/ml) | Growth in poison agar medium ([4]; CAN 102, 5 μg/ml) | Growth in poison agar medium ([4]; CAN 103, 5 μg/ml) | Growth in poison agar medium ([4]; CAN 104, 5 μg/ml) | Growth in poison agar medium ([4]; CAN 105, 5 μg/ml) | Growth in poison agar medium ([4]; CAN 106, 5 μg/ml) | Growth in poison agar medium ([4]; CAN 107, 5 μg/ml) | Growth in poison agar medium ([4]; CAN 108, 5 μg/ml) | Growth in poison agar medium ([4]; CAN 109, 5 μg/ml) | Growth in poison agar medium ([4]; CAN 110, 5 μg/ml) | Growth in poison agar medium ([4]; CAN 111, 5 μg/ml) | Growth in poison agar medium ([4]; CAN 112, 5 μg/ml) | Growth in poison agar medium ([4]; CAN 113, 5 μg/ml) | Growth in poison agar medium ([4]; CAN 114, 5 μg/ml) | Growth in poison agar medium ([4]; CAN 115, 5 μg/ml) | Growth in poison agar medium ([4]; CAN 116, 5 μg/ml) | Growth in poison agar medium ([4]; CAN 117, 5 μg/ml) | Growth in poison agar medium ([4]; CAN 118, 5 μg/ml) | Growth in poison agar medium ([4]; CAN 119, 5 μg/ml) | Growth in poison agar medium ([4]; CAN 120, 5 μg/ml) | Growth in poison agar medium ([4]; CAN 121, 5 μg/ml) | Growth in poison agar medium ([4]; CAN 122, 5 μg/ml) | Growth in poison agar medium ([4]; CAN 123, 5 μg/ml) | Growth in poison agar medium ([4]; CAN 124, 5 μg/ml) | Growth in poison agar medium ([4]; CAN 125, 5 μg/ml) | Growth in poison agar medium ([4]; CAN 126, 5 μg/ml) | Growth in poison agar medium ([2]; CAL 101, 20 μg/ml) | Growth in poison agar medium ([2]; CAL 102, 20 μg/ml) | Growth in poison agar medium ([2]; CAL 103, 20 μg/ml) | Growth in poison agar medium ([2]; CAL 104, 20 μg/ml) | Growth in poison agar medium ([2]; CAL 105, 20 μg/ml) | Growth in poison agar medium ([2]; CAL 106, 20 μg/ml) | Growth in poison agar medium ([2]; CAL 107, 20 μg/ml) | Growth in poison agar medium ([2]; CAL 108, 20 μg/ml)

CN(C)[C@@H]1C(O)=C(C(N)=O)C(=O)[C@@]2(O)C(O)=C3C(=O)c4c(O)cccc4[C@@](C)(O)[C@H]3C[C@@H]12 [Tetracycline]
10 µg/mL: concentration against which the strain is resistant (mdr) [3]
